Test results: the Kinase Knowledgebase extract (Sharma et al. 2016)

Target: PIK3CG (human) (UniProt P48736)
Experiment: Assessment of PIK3CG Kinase Activity

Chain of PIK3CG (human) (P48736 whole entry, looked up): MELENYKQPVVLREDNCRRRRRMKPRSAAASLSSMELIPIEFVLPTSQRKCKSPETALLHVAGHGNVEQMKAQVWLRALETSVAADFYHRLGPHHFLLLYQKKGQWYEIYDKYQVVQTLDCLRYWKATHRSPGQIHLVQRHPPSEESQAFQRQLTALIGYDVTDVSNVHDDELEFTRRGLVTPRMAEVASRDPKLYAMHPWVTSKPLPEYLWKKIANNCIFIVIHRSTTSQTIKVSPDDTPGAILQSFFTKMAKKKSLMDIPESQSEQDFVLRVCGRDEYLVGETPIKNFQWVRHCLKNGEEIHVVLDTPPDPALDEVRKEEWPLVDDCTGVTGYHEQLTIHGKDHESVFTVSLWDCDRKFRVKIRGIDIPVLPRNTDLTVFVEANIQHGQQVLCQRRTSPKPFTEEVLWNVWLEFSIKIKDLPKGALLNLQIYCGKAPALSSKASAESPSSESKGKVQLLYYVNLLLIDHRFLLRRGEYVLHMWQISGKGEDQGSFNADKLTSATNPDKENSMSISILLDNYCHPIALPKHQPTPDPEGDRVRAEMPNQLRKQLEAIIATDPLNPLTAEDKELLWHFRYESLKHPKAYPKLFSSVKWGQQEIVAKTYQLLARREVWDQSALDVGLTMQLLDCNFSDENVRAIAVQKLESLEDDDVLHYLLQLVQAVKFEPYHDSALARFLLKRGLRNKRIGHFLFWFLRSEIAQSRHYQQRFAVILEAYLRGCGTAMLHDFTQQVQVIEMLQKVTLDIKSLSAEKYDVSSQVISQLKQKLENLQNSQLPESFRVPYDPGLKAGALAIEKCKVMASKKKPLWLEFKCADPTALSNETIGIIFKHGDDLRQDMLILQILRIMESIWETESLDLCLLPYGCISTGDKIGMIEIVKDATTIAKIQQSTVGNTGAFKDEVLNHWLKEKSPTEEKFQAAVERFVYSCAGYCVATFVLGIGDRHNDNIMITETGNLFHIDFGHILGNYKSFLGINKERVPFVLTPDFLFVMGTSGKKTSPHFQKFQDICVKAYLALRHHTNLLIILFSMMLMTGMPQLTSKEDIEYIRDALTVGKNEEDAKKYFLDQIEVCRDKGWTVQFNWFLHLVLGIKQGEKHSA

Row | Structure (SMILES) | IC50
1 | CC(C)N1CC(=O)N(C)c2cnc(Nc3cc(NC(=O)N(C)C[C@@H]4CCCN4C4CCCC4)cc(S(C)(=O)=O)c3)nc21 | < 800 nM
2 | CC(C)N1CC(=O)N(C)c2cnc(Nc3cc(NC(=O)N[C@H]4CCN(C5CCOCC5)C4)cc(S(C)(=O)=O)c3)nc21 | < 800 nM
3 | CCN1CCCC1CNC(=O)c1cc(Nc2ncc3c(n2)N(C(C)C)CC(=O)N3C)cc(S(C)(=O)=O)c1 (stereo not drawn) | < 800 nM
4 | CC(C)N1CC(=O)N(C)c2cnc(Nc3cc(C(=O)NCCN4CCNC4=O)cc(S(C)(=O)=O)c3)nc21 | < 800 nM
5 | CC(C)N1CC(=O)N(C)c2cnc(Nc3cc(NC(=O)N[C@H]4CCN(Cc5ccccc5)C4)cc(S(C)(=O)=O)c3)nc21 | < 800 nM
6 | CC(C)N1CC(=O)N(C)c2cnc(Nc3cc(NC(=O)C4CNCCO4)cc(S(C)(=O)=O)c3)nc21 (stereo not drawn) | < 800 nM
7 | CC(C)N1CC(=O)N(C)c2cnc(Nc3cc(NC(=O)[C@@H]4CCCN4C4CCCC4)cc(S(C)(=O)=O)c3)nc21 | < 800 nM
8 | CC(C)N1CC(=O)N(C)c2cnc(Nc3cc(NC(=O)c4csc5ccccc45)cc(S(C)(=O)=O)c3)nc21 | < 800 nM
9 | Cc1[nH]c2ccccc2c1CC(=O)Nc1cc(Nc2ncc3c(n2)N(C(C)C)CC(=O)N3C)cc(S(C)(=O)=O)c1 | < 800 nM
10 | CNC(=O)c1cc(Nc2ncc3c(n2)N(C(C)C)CC(=O)N3C)cc(S(C)(=O)=O)c1 | < 800 nM
11 | CC(C)N1CC(=O)N(C)c2cnc(Nc3cc(N(C)C(=O)N[C@H]4CCN(Cc5ccccc5)C4)cc(S(C)(=O)=O)c3)nc21 | < 800 nM
12 | COc1cc(Nc2ncc3c(n2)N(C(C)C)CC(=O)N3C)cc(S(C)(=O)=O)c1 | < 800 nM
13 | CC(C)N1CC(=O)N(C)c2cnc(Nc3cc(CO)cc(S(C)(=O)=O)c3)nc21 | < 800 nM
14 | CC(C)N1CC(=O)N(C)c2cnc(Nc3cc(C#N)cc(S(C)(=O)=O)c3)nc21 | < 800 nM
15 | CC(C)N1CC(=O)N(C)c2cnc(Nc3cccc(S(=O)(=O)CCN4CCN(C)CC4)c3)nc21 | < 800 nM
16 | CC(C)N1CC(=O)N(C)c2cnc(Nc3cc(NS(=O)(=O)c4cccnc4)cc(S(C)(=O)=O)c3)nc21 | < 800 nM
17 | CC(C)N1CC(=O)N(C)c2cnc(Nc3cc(NS(C)(=O)=O)cc(C(=O)NCCCCN(C)C)c3)nc21 | < 800 nM
18 | CC(C)N1CC(=O)N(C)c2cnc(Nc3cc(C(=O)NCCN(C)C)cc(S(C)(=O)=O)c3)nc21 | < 800 nM
19 | CC(C)N1CC(=O)N(C)c2cnc(Nc3cc(N(C)C(=O)Cc4ccccc4)cc(S(C)(=O)=O)c3)nc21 | < 800 nM
20 | CC(C)N1CC(=O)N(C)c2cnc(Nc3cc(NC(=O)[C@@H]4CCN(C5CCCC5)C4)cc(S(C)(=O)=O)c3)nc21 | < 800 nM

Row | Structure (SMILES) | IC50
21 | CC(C)N1CC(=O)N(C)c2cnc(Nc3cc(NS(=O)(=O)CC4CCCCC4)cc(S(C)(=O)=O)c3)nc21 | < 800 nM
22 | CC(C)N1CC(=O)N(C)c2cnc(Nc3cc(NC(=O)[C@@H]4CCNC4)cc(S(C)(=O)=O)c3)nc21 | < 800 nM
23 | CC(C)N1CC(=O)N(C)c2cnc(Nc3cc(NC(=O)[C@@H]4CCCN4)cc(S(C)(=O)=O)c3)nc21 | < 800 nM
24 | CCC(C(=O)Nc1cc(Nc2ncc3c(n2)N(C(C)C)CC(=O)N3C)cc(S(C)(=O)=O)c1)c1ccccc1 (stereo not drawn) | < 800 nM
25 | CC(C)N1CC(=O)N(C)c2cnc(Nc3cc(C(F)(F)F)cc(S(C)(=O)=O)c3)nc21 | < 800 nM
26 | CC(C)N1CC(=O)N(C)c2cnc(Nc3cc(NC(=O)NC[C@@H]4CCCO4)cc(S(C)(=O)=O)c3)nc21 | < 800 nM
27 | CC(C)N1CC(=O)N(C)c2cnc(Nc3cc(NC(=O)[C@H]4CCNC4)cc(S(C)(=O)=O)c3)nc21 | < 800 nM
28 | CC(C)N1CC(=O)N(C)c2cnc(Nc3cc(N(C)C(=O)Cc4cccs4)cc(S(C)(=O)=O)c3)nc21 | < 800 nM
29 | CC(C)N1CC(=O)N(C)c2cnc(Nc3cc(N(C)C(=O)Cc4cccc(Cl)c4)cc(S(C)(=O)=O)c3)nc21 | < 800 nM
30 | CN1C(=O)CN(c2ccccc2)c2nc(Nc3cccc(S(=O)(=O)CCN4CCCCC4)c3)ncc21 | < 800 nM
31 | CC(C)N1CC(=O)N(C)c2cnc(Nc3cc(NC(=O)Cc4ccsc4)cc(S(C)(=O)=O)c3)nc21 | < 800 nM
32 | CC(C)N1CC(=O)N(C)c2cnc(Nc3cc(NC(=O)N[C@H]4CCN(C(=O)OC(C)(C)C)C4)cc(S(C)(=O)=O)c3)nc21 | < 800 nM
33 | CNC(=O)Nc1cc(Nc2ncc3c(n2)N(C(C)C)CC(=O)N3C)cc(S(C)(=O)=O)c1 | < 800 nM
34 | CC(C)N1CC(=O)N(C)c2cnc(Nc3cc(N(C)C(=O)NCc4ccccc4)cc(S(C)(=O)=O)c3)nc21 | < 800 nM
35 | CC(C)N1CC(=O)N(C)c2cnc(Nc3cc(NC(=O)Cc4cc5cc(F)ccc5[nH]4)cc(S(C)(=O)=O)c3)nc21 | < 800 nM
36 | CC(C)N1CC(=O)N(C)c2cnc(Nc3cc(NC(=O)NCC4CC4)cc(S(C)(=O)=O)c3)nc21 | < 800 nM
37 | CC(C)N1CC(=O)N(C)c2cnc(Nc3cc(NC(=O)CC4CC4)cc(S(C)(=O)=O)c3)nc21 | < 800 nM
38 | CC(C)N1CC(=O)N(C)c2cnc(Nc3cc(NC(=O)[C@@H]4CCCNC4)cc(S(C)(=O)=O)c3)nc21 | < 800 nM
39 | CN1C(=O)CN(c2ccccc2)c2nc(Nc3cccc(S(=O)(=O)CCNC4CC4)c3)ncc21 | < 800 nM
40 | CC(C)N1CC(=O)N(C)c2cnc(Nc3cc(NC(=O)C[C@H]4CCN(C5CCCC5)C4)cc(S(C)(=O)=O)c3)nc21 | < 800 nM

Row | Structure (SMILES) | IC50
41 | CC(C)N1CC(=O)N(C)c2cnc(Nc3cccc(S(=O)(=O)CCN4CCOCC4)c3)nc21 | < 800 nM
42 | CC(C)N1CC(=O)N(C)c2cnc(Nc3cc(NC(=O)Cc4c[nH]c5ccccc45)cc(S(C)(=O)=O)c3)nc21 | < 800 nM
43 | CC(C)N1CC(=O)N(C)c2cnc(Nc3cccc(S(=O)(=O)CCN(C)C)c3)nc21 | < 800 nM
44 | CC(C)N1CC(=O)N(C)c2cnc(Nc3cc(C(=O)NC4CCN(C)C4)cc(S(C)(=O)=O)c3)nc21 (stereo not drawn) | < 800 nM
45 | CC(C)N1CC(=O)N(C)c2cnc(Nc3cc(NC(=O)NC[C@@H]4CCCN4C4CCCC4)cc(S(C)(=O)=O)c3)nc21 | < 800 nM
46 | CC(C)N1CC(=O)N(C)c2cnc(Nc3cc(NC(=O)Cc4cccnc4)cc(S(C)(=O)=O)c3)nc21 | < 800 nM
47 | CC(C)N1CC(=O)N(C)c2cnc(Nc3cc(C(N)=O)cc(C(F)(F)F)c3)nc21 | < 800 nM
48 | CC(C)N1CC(=O)N(C)c2cnc(Nc3cc(NC(=O)C4CCCCN4)cc(S(C)(=O)=O)c3)nc21 (stereo not drawn) | < 800 nM
49 | CC(C)N1CC(=O)N(C)c2cnc(Nc3cc(NS(C)(=O)=O)cc(C(=O)NC4CCN(C)C4)c3)nc21 (stereo not drawn) | < 800 nM
50 | CC(C)N1CC(=O)N(C)c2cnc(Nc3cc(N(C)C(=O)Cc4ccsc4)cc(S(C)(=O)=O)c3)nc21 | < 800 nM
51 | CC(C)N1CC(=O)N(C)c2cnc(Nc3cc(NS(=O)(=O)Cc4ccccc4)cc(S(C)(=O)=O)c3)nc21 | < 800 nM
52 | CC(C)N1CC(=O)N(C)c2cnc(Nc3cc(NC(=O)N[C@@H]4CCN(C5CCOCC5)C4)cc(S(C)(=O)=O)c3)nc21 | < 800 nM
53 | Cc1ccccc1CC(=O)Nc1cc(Nc2ncc3c(n2)N(C(C)C)CC(=O)N3C)cc(S(C)(=O)=O)c1 | < 800 nM
54 | CC(C)N1CC(=O)N(C)c2cnc(Nc3cc(C(=O)N(C)Cc4ccncc4)cc(S(C)(=O)=O)c3)nc21 | < 800 nM
55 | CC(C)N1CC(=O)N(C)c2cnc(Nc3cc(NC(=O)N[C@H]4CCNC4)cc(S(C)(=O)=O)c3)nc21 | < 800 nM
56 | CC(C)N1CC(=O)N(C)c2cnc(Nc3cccc(S(=O)(=O)CCNC4CCC4)c3)nc21 | < 800 nM
57 | CC(C)N1CC(=O)N(C)c2cnc(Nc3cc(C(=O)NCCCN(C)C)cc(S(C)(=O)=O)c3)nc21 | < 800 nM
58 | CC(C)N1CC(=O)N(C)c2cnc(Nc3cc(NC(=O)N(C)C[C@H]4CCCN4C4CCCC4)cc(S(C)(=O)=O)c3)nc21 | < 800 nM
